Source: PubChem BioAssay (NCI)
Where “and” joins values, the source holds several entries; their conditions need not be identical. Equal values may be shown once.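 Values below derive from 48-hour exposures of cells grown in 96-well plates, with endpoints linearly interpolated between the two concentrations bracketing the appropriate inhibition level. TGI: concentration producing complete growth inhibition.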

Experiments:
Assay in all cases: DTP human tumour cell line panel, 48 h
[1] = tested on: SF-268 CNS
[2] = tested on: SK-MEL-5 melanoma
[3] = tested on: SF-539 CNS
[4] = tested on: TK-10 renal
[5] = tested on: NCI/ADR-RES ovarian
[6] = tested on: SR leukemia
[7] = tested on: CAKI-1 renal
[8] = tested on: MALME-3M melanoma
[9] = tested on: SK-MEL-28 melanoma
[10] = tested on: MOLT-4 leukemia

SMILES | TGI [1] [µM] | TGI [2] | TGI [3] [µM] | TGI [4] | TGI [5] [µM] | TGI [6] [µM] | TGI [7] | TGI [8] [µM] | TGI [9] | TGI [10] [µM]
Cc1cc2[nH]c3[nH]c(=O)[nH]c(=O)c3c2cc1C | > 100 | > 100 µM | > 100 | > 100 µM | > 100 | > 100 | > 100 µM | > 100 | – | –
O=S(=O)(O)c1cc2ccc1/C=C\c1ccc(cc1S(=O)(=O)O)N=Nc1ccc(c(S(=O)(=O)O)c1)/C=C\c1ccc(cc1S(=O)(=O)O)N=N2 | > 100 | > 100 µM | > 100 | – | > 100 | – | – | > 100 | > 100 µM | > 100
NNC(=O)c1ccc[n+](CCc2ccccc2)c1 | > 100 | > 100 µM | – | > 100 µM | > 100 | – | > 100 µM | > 100 | > 100 µM | > 100
COc1ccc(CC(O)CN2CCOCC2)cc1 (centres undefined) | > 100 | > 100 µM | – | > 100 µM | > 100 | > 100 | > 100 µM | > 100 | > 100 µM | > 100
Cc1cn(C2OC(C)(CO)C(O)C2O)c(=O)[nH]c1=O (centres undefined) | > 100 | > 100 µM | > 100 | > 100 µM | – | > 100 | > 100 µM | > 100 | > 100 µM | > 100
C=CCOC(=O)CC[N+]1=CCC(c2ccccc2)(c2ccccc2)O1 | > 100 | > 100 µM | > 100 | > 100 µM | – | – | > 100 µM | – | > 100 µM | > 100
O=C(NCCN1CCOCC1)c1ccc2cc(C(=O)N3CC(CCl)c4ccc([N+](=O)[O-])cc43)[nH]c2c1 (centres undefined) | 31.3 | 4.73 µM | > 100 | 36.6 µM | > 100 | – | 52.4 µM | – | > 100 µM | 39.1
CC[C@H]1CN2CCc3cc(OC)c(OC)cc3[C@@H]2C[C@@H]1C[C@H]1NCCc2cc(OC)c(OC)cc21 | – | 0.0701 µM and 0.0855 µM | – | 0.0784 µM and 0.309 µM | 0.502 | – | 0.111 µM and 0.333 µM | 0.255 | 0.176 µM and 0.109 µM | –
Cc1cc(=O)c2c([nH]1)NS(=O)(=O)NC2=O | > 100 | – | > 100 | > 100 µM | – | > 100 | > 100 µM | > 100 | > 100 µM | > 100
CC(=O)N(C(C)=O)C1=C2c3ccccc3N(S(=O)(=O)c3ccccc3)C2n2c(=O)n(-c3ccccc3)c(=O)n2C1 (centres undefined) | > 100 | 58.8 µM | 38.5 | > 100 µM | – | 39.5 | > 100 µM | 46.5 | 58.2 µM | –
CCOC(=O)/C=C(\C)c1ccc(C)cc1C | > 100 | > 100 µM | > 100 | > 100 µM | – | 37.3 | > 100 µM | 53.9 | 51.8 µM | > 100
O=c1ccc2cc3ccc4cccc5ccc(c2o1)c3c45 | > 100 | > 100 µM | 21.9 | > 100 µM | – | – | > 100 µM | > 100 | > 100 µM | > 100
O=C1/C(=C\c2cccc(Oc3ccccc3)c2)S(=O)(=O)C(c2ccccc2)N1Cc1ccccc1 (centres undefined) | – | 39.3 µM | > 100 | > 100 µM | 45 | 46.2 | 75 µM | 37.8 | 93.2 µM | 7.7
